These results are taken from US20110212968A1, “PHENETHYLAMIDE DERIVATIVES AND THEIR HETEROCYCLIC ANALOGUES” (priority 2008, published 2011).

Bounds are passed on as bounds.

The target in one test is T1, human orexin-2 receptor (Homo sapiens, UniProt O43614).
T1 construct: expressed in transfected cells; host or cells: CHO (Chinese hamster ovary) cells, kept under G418 selection
T1 sequence (O43614 1-444): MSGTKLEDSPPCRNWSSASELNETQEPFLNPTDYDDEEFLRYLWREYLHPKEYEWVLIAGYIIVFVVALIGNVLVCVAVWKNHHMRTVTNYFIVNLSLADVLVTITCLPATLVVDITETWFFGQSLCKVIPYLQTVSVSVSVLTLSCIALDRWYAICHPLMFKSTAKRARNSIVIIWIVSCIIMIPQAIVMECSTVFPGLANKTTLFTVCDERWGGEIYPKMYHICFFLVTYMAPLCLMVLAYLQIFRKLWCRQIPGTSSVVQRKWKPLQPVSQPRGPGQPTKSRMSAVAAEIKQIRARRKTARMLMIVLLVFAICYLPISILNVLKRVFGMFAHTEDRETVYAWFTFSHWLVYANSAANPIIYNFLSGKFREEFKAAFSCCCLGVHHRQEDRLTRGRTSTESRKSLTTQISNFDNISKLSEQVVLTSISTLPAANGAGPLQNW
As to the kind of experiment: Intracellular calcium measurement (FLIPR Tetra), orexin receptor antagonistic activity, OX2. The test is classed as cell-based. The note with it: CHO cells expressing human orexin-2 receptor, 3 nM orexin-A. On the procedure: (§1) The orexin receptor antagonistic activity of the compounds of formula (I) is determined in accordance with one of the following experimental methods.
(§2) Chinese hamster ovary (CHO) cells expressing the human orexin-1 receptor and the human orexin-2 receptor, respectively, are grown in culture medium (Ham F-12 with L-Glutamine) containing 300 μg/ml G418, 100 U/ml penicillin, 100 μg/ml streptomycin and 10% heat inactivated fetal calf serum (FCS). The cells are seeded at 20,000 cells/well into 384-well black clear bottom sterile plates (Greiner). The seeded plates are incubated overnight at 37° C. in 5% CO2.
(§3) Human orexin-A as an agonist is prepared as 1 mM stock solution in MeOH:water (1:1), diluted in HBSS containing 0.1% bovine serum albumin (BSA), NaHCO3: 0.375 g/l and 20 mM HEPES for use in the assay at a final concentration of 3 nM. Antagonists are prepared as 10 mM stock solution in DMSO, then diluted in 384-well plates, first in DMSO, then in HBSS containing 0.1% bovine serum albumin (BSA), NaHCO3: 0.375 g/l and 20 mM HEPES.
(§4) On the day of the assay, 50 μl of staining buffer (HBSS containing 1% FCS, 20 mM HEPES, NaHCO3: 0.375 g/l, 5 mM probenecid (Sigma) and 3 μM of the fluorescent calcium indicator fluo-4 AM (1 mM stock solution in DMSO, containing 10% pluronic) is added to each well.
(§5) The 384-well cell-plates are incubated for 50 min at 37° C. in 5% CO2 followed by equilibration at RT for 30-120 min before measurement.
(§6) Within the Fluorescent Imaging Plate Reader (FLIPR Tetra, Molecular Devices), antagonists are added to the plate in a volume of 10 μl/well, incubated for 10 min and finally 10 μl/well of agonist is added. Fluorescence is measured for each well at 1 second intervals, and the height of each fluorescence peak is compared to the height of the fluorescence peak induced by 3 nM orexin-A with vehicle in place of antagonist. For each antagonist, the IC50 value (the concentration of compound needed to inhibit 50% of the agonistic response) is determined and may be normalized using the obtained IC50 value of a on-plate reference compound (normalized values in Table 1 are indicated by an asterisk *). With the FLIPR Tetra, two different conditions (conditions A and conditions B) were used, differing in adjustment of pipetting speed and cell splitting regime. The calculated IC50 values of the compounds may fluctuate depending on the daily cellular assay performance. Fluctuations of this kind are known to those skilled in the art.
A general note: Calcium flux is commonly read through the fluorescence of an indicator in the cells.

For another test, the target named is T2, human orexin-1 receptor (Homo sapiens, UniProt O43613).
T2 construct: expressed in transfected cells; host or cells: CHO (Chinese hamster ovary) cells, kept under G418 selection
T2 sequence (O43613 1-425): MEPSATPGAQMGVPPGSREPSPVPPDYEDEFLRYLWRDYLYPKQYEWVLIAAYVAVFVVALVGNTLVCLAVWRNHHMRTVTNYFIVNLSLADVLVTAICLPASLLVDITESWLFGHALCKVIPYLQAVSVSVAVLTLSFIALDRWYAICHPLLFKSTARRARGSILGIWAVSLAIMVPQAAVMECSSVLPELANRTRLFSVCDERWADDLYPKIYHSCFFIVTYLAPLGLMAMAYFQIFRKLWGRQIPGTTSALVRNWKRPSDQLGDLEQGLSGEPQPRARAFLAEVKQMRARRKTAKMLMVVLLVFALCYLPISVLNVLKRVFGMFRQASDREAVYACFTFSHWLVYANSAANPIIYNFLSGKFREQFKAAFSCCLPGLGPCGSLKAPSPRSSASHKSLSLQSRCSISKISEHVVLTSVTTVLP
As to the kind of experiment: Intracellular calcium measurement (FLIPR Tetra), orexin receptor antagonistic activity, OX1. It counts as cell-based. The note with it: CHO cells expressing human orexin-1 receptor, 3 nM orexin-A. As to the method:
as §1, §2, §3, §4, §5, §6

[1] abbreviates: conditions B, normalized (*) using IC50 of on-plate reference compound.

With “2-Methyl-5-m-tolyl-thiazole-4-carboxylic acid [2-cyclopropyl-amino-2-(3,4-dimethoxy-phenyl)-ethyl]-cyclopropylmethyl-amide [Example 432]”, the concentration for half-maximal inhibition (IC50) (as a rule, the concentration that gives 50% inhibition) was 75 nM on human orexin-2 receptor (conditions B) and 234 nM at human orexin-1 receptor (conditions B).
In the case of `COc1ccc2[nH]cc(CC(C)N(CC3CC3)C(=O)c3nc(C)sc3-c3ccc(OC)nc3)c2c1` (racemic) [Example 385], the 50% inhibitory concentration (IC50) at human orexin-2 receptor (setting [1]) was 25 nM; at human orexin-1 receptor (setting [1]), 23 nM.
Take `COc1ccc(CCN(CC2CC2)C(=O)c2nc(C)sc2-c2ccccc2)cc1OC` [Example 18, 2-Methyl-5-phenyl-thiazole-4-carboxylic acid cyclopropylmethyl-[2-(3,4-dimethoxy-phenyl)-ethyl]-amide]: the values for the IC50 at human orexin-2 receptor (conditions A) and at human orexin-1 receptor (conditions A) were 4 nM and 925 nM, respectively.
`COc1ccc(CCN(CC2CC2)C(=O)c2nc(C)sc2-c2cccc(C#N)c2)cc1OC` [Example 19, 5-(3-Cyano-phenyl)-2-methyl-thiazole-4-carboxylic acid cyclopropylmethyl-[2-(3,4-dimethoxy-phenyl)-ethyl]-amide]: the half-maximal inhibitory concentration (IC50) at human orexin-2 receptor (conditions A) was found to be 40 nM; on human orexin-1 receptor (conditions A) it was 2200 nM.
With `CCc1ccc(-c2sc(C)nc2C(=O)N(CCc2ccc(OC)c(OC)c2)CC2CC2)cc1` [Example 20, 5-(4-Ethyl-phenyl)-2-methyl-thiazole-4-carboxylic acid cyclopropylmethyl-[2-(3,4-dimethoxy-phenyl)-ethyl]-amide], the figures for the IC50 on human orexin-2 receptor (conditions A) and on human orexin-1 receptor (conditions A) were 15 nM and 2130 nM, respectively.
Turning to `COc1ccc(CCN(CC2CC2)C(=O)c2nc(C3CC3)sc2-c2ccccc2)cc1OC` [Example 22, 2-Cyclopropyl-5-phenyl-thiazole-4-carboxylic acid cyclopropylmethyl-[2-(3,4-dimethoxy-phenyl)-ethyl]-amide], the values for the 50% inhibitory concentration (IC50) at human orexin-2 receptor (conditions A) and at human orexin-1 receptor (conditions A) were 35 nM and 570 nM, respectively.
Consider `COc1ccc(CCN(CC2CC2)C(=O)c2nc(N(C)C)sc2-c2cccc(C)c2)cc1OC` [Example 30, 2-Dimethylamino-5-m-tolyl-thiazole-4-carboxylic acid cyclopropylmethyl-[2-(3,4-dimethoxy-phenyl)-ethyl]-amide], for which the IC50 at human orexin-2 receptor (conditions A) is 30 nM; at human orexin-1 receptor (conditions A), 206 nM.
In the case of `COc1ccc(CCN(CC2CC2)C(=O)c2ncsc2-c2ccccc2F)cc1OC` [Example 37, 5-(2-Fluoro-phenyl)-thiazole-4-carboxylic acid cyclopropylmethyl-[2-(3,4-dimethoxy-phenyl)-ethyl]-amide], the figures for the half-maximal inhibitory concentration (IC50) at human orexin-2 receptor (conditions A) and on human orexin-1 receptor (conditions A) were 5 nM and 2690 nM, respectively.
With `COc1cccc(-c2oc(C)nc2C(=O)N(CCc2ccc(OC)c(OC)c2)CC2CC2)c1` [Example 42, 5-(3-Methoxy-phenyl)-2-methyl-oxazole-4-carboxylic acid cyclopropylmethyl-[2-(3,4-dimethoxy-phenyl)-ethyl]-amide], the IC50 came out at 20 nM at human orexin-2 receptor (conditions A) and 1010 nM on human orexin-1 receptor (conditions A).
In the case of `COc1ccc(CCN(CC2CC2)C(=O)c2nc(C)oc2-c2cccc(C(F)(F)F)c2)cc1OC` [Example 43, 2-Methyl-5-(3-trifluoromethyl-phenyl)-oxazole-4-carboxylic acid cyclopropylmethyl-[2-(3,4-dimethoxy-phenyl)-ethyl]-amide], the IC50 on human orexin-2 receptor (conditions A) is 18 nM; on human orexin-1 receptor (conditions A), 3120 nM.
Consider `COc1ccc(CCN(CC2CC2)C(=O)c2sc(C)nc2-c2ccc(Cl)cc2)cc1OC` [Example 48, 4-(4-Chloro-phenyl)-2-methyl-thiazole-5-carboxylic acid cyclopropylmethyl-[2-(3,4-dimethoxy-phenyl)-ethyl]-amide], for which the concentration for half-maximal inhibition (IC50) on human orexin-2 receptor (conditions A) was 17 nM; on human orexin-1 receptor (conditions A) it was 4920 nM.
Consider `COc1ccc(CCN(CC2CC2)C(=O)c2sc(C)nc2-c2ccc(C)cc2)cc1OC` [Example 49, 2-Methyl-4-p-tolyl-thiazole-5-carboxylic acid cyclopropylmethyl-[2-(3,4-dimethoxy-phenyl)-ethyl]-amide], for which the half-inhibitory concentration (IC50) on human orexin-2 receptor (conditions A) is 22 nM; on human orexin-1 receptor (conditions A) it was 4230 nM.
Taken in the same sequence, the figures for `COc1ccc(CCN(CC2CC2)C(=O)c2sc(C)nc2-c2ccc(F)cc2)cc1OC` [Example 50, 4-(4-Fluoro-phenyl)-2-methyl-thiazole-5-carboxylic acid cyclopropylmethyl-[2-(3,4-dimethoxy-phenyl)-ethyl]-amide] were 10 nM and above 10000 nM.
On to `COc1ccc(CCN(CC2CC2)C(=O)c2c(-c3ccccc3)nnc3ccccc23)cc1OC` [Example 51, 3-Phenyl-cinnoline-4-carboxylic acid cyclopropylmethyl-[2-(3,4-dimethoxy-phenyl)-ethyl]-amide], for which the half-inhibitory concentration (IC50) on human orexin-2 receptor (conditions A) was 34 nM; on human orexin-1 receptor (conditions A) it was 1440 nM.
In the case of `COc1ccc(CCN(CC2CC2)C(=O)c2snnc2-c2ccccc2)cc1OC` [Example 53, 4-Phenyl-[1,2,3]thiadiazole-5-carboxylic acid cyclopropylmethyl-[2-(3,4-dimethoxy-phenyl)-ethyl]-amide], the concentration for half-maximal inhibition (IC50) at human orexin-2 receptor (conditions A) was 81 nM; on human orexin-1 receptor (conditions A) it was 8670 nM.
Consider `COc1ccc(C(O)CN(CC2CC2)C(=O)c2nc(Br)sc2-c2cccc(C)c2)cc1OC` (stereo not shown) [Example 56, 2-Bromo-5-m-tolyl-thiazole-4-carboxylic acid cyclopropylmethyl-[2-(3,4-dimethoxy-phenyl)-2-hydroxy-ethyl]-amide], for which the figures for the IC50 on human orexin-2 receptor (conditions A) and at human orexin-1 receptor (conditions A) were 299 nM and 697 nM, respectively.
With `COc1nc(C(=O)N(CC2CC2)CC(O)c2ccc(OC)c(OC)c2)c(-c2cccc(C)c2)s1` (stereo not shown) [Example 78, 2-Methoxy-5-m-tolyl-thiazole-4-carboxylic acid cyclopropylmethyl-[2-(3,4-dimethoxy-phenyl)-2-hydroxy-ethyl]-amide], the IC50 on human orexin-2 receptor (conditions A) amounted to 141 nM; on human orexin-1 receptor (conditions A), 1120 nM.
As for `COc1ccc(C(O)CN(CC2CC2)C(=O)c2nc(N(C)C)sc2-c2cccc(C)c2)cc1OC` (stereo not shown) [Example 79, 2-Dimethylamino-5-m-tolyl-thiazole-4-carboxylic acid cyclopropylmethyl-[2-(3,4-dimethoxy-phenyl)-2-hydroxy-ethyl]-amide], the half-inhibitory concentration (IC50) on human orexin-2 receptor (conditions A) was determined as 158 nM; on human orexin-1 receptor (conditions A), 276 nM.
Consider `COc1ccc(C(O)CN(CC2CC2)C(=O)c2ncsc2-c2cccc(C(F)(F)F)c2)cc1OC` (stereo not shown) [Example 85, 5-(3-Trifluoromethyl-phenyl)-thiazole-4-carboxylic acid cyclopropylmethyl-[2-(3,4-dimethoxy-phenyl)-2-hydroxy-ethyl]-amide], for which the values for the 50% inhibitory concentration (IC50) on human orexin-2 receptor (conditions A) and at human orexin-1 receptor (conditions A) were 551 nM and above 10000 nM, respectively.
For the compound `COc1ccc(C(O)CN(CC2CC2)C(=O)c2c(-c3ccccc3)nc3ccc(Cl)cn23)cc1OC` (stereo not shown) [Example 97, 6-Chloro-2-phenyl-imidazo[1,2-a]pyridine-3-carboxylic acid cyclopropylmethyl-[2-(3,4-dimethoxy-phenyl)-2-hydroxy-ethyl]-amide], the half-maximal inhibitory concentration (IC50) on human orexin-2 receptor (conditions A) is 263 nM; at human orexin-1 receptor (conditions A), 4920 nM.
